Reference: patent US9732065B2, “Cyclic aminomethyl pyrimidine derivative” (Sumitomo Dainippon Pharma Co., Ltd., priority 2013, dated 2017)

Biological target: T1, Human dopamine D4 receptor (Homo sapiens, UniProt P21917)
T1 sequence (P21917 1-419): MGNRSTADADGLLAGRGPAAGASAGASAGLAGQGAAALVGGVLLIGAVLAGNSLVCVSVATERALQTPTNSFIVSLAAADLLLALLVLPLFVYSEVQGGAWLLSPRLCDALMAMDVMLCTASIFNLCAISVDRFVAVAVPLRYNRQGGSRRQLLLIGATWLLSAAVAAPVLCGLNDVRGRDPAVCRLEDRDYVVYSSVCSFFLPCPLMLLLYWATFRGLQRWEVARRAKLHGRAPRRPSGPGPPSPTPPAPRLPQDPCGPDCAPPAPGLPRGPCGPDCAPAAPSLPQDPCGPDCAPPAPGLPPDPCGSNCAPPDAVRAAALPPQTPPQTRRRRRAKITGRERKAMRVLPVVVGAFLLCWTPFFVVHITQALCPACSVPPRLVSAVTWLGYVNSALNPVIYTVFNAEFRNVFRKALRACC
Experiment: Agonistic/antagonistic activity in G protein dependent pathway (aequorin intracellular calcium luminescence), D4
Type: cell-based
Set-up: expressed in transfected cells; host or cells: CHO-K1 or HEK293 cells
Settings: read-out: Maximal activity on each receptor (%): D4
Description: Plasmids encoding each receptor, aequorin and Gα16 were prepared, and the plasmids were transfected into CHO cells (Chinese Hamster Ovary cells) or HEK293 cells (Human Embryonic Kidney 293 cells) to prepare expressing cell lines.
The agonistic or antagonistic activity of the present compound in the G protein dependent pathway was evaluated on the basis of intracellular calcium levels as follows. CHO-K1 or HEK293 cell lines transfected with D2, D4, α1A, or α2A receptor genes were seeded in a 384-well plate, and incubated in a CO2 incubator at 37° C. for 24 hours, and then a solution of the present compound in DMSO was added into cells preloaded with coelenterazine to measure the change in luminescent signals with a FDSS (Hamamatsu Photonics K.K.). […] The agonistic activity of the present compound was calculated according to the measured luminescent signals, as the maximal activity (Emax) of the present compound. On the other hand, the antagonistic activity of the present compound was calculated according to the luminescent signals in wells with 10 μM of an endogenous ligand alone defined as 100%, as the inhibitory activity of the present compound to an endogenous ligand. EC50 value was calculated as the concentration of the present compound required to achieve a 50% response, and IC50 was calculated as the concentration of the present compound required to achieve a 50% inhibition of the Emax of an endogenous ligand.

SMILES | Emax at 1 µM
Cc1ncc(CN2CC=C(c3ccccn3)CC2)c(N)n1 [Example 1, 5-(3′,6′-Dihydro-2,4′-bipyridin-1′(2′H)-ylmethyl)-2-methylpyrimidin-4-amine] | 62%
Cc1ncc(CN2CC=C(c3ncccc3F)CC2)c(N)n1 [Example 3, 5-(3-Fluoro-3′,6′-dihydro-2,4′-bipyridin-1′(2′H)-ylmethyl)-2-methylpyrimidin-4-amine] | 69%
Cc1ncc(CN2CC=C(c3cncc(F)c3)CC2)c(N)n1 [Example 4, 5-(5-Fluoro-3′,6′-dihydro-3,4′-bipyridin-1′(2′H)-ylmethyl)-2-methylpyrimidin-4-amine] | 65%
Cc1ncc(CN2CCC(c3cccnc3)CC2)c(N)n1 [Example 6, 2-Methyl-5-[4-(pyridin-3-yl)piperidin-1-ylmethyl]pyrimidin-4-amine] | 63%
Cc1ncc(CN2CCC(c3cncc(F)c3)CC2)c(N)n1 [Example 7, 5-[4-(5-Fluoropyridin-3-yl)piperidin-1-ylmethyl]-2-methylpyrimidin-4-amine] | 64%
Cc1ncc(CN2CCC(c3nccc4ccccc34)CC2)c(N)n1 [Example 8] | 62%
Cc1ncc(CN2CCC(c3cc4ccccc4cn3)CC2)c(N)n1 [Example 9, 5-[4-(Isoquinolin-3-yl)piperidin-1-ylmethyl]-2-methylpyrimidin-4-amine] | 70%
CCc1ncc(CN2CC=C(c3ccccn3)CC2)c(N)n1 [Example 10, 5-(3′,6′-Dihydro-2,4′-bipyridin-1′(2′H)-ylmethyl)-2-ethylpyrimidin-4-amine] | 110%
CCc1ncc(CN2CC=C(c3cccnc3)CC2)c(N)n1 [Example 11] | 93%
CCc1ncc(CN2CCC(c3ccccn3)CC2)c(N)n1 [Example 12] | 101%
CCc1ncc(CN2CCC(c3cccnc3)CC2)c(N)n1 [Example 13] | 81%
CC(C)c1ncc(CN2CC=C(c3ccccn3)CC2)c(N)n1 [Example 14] | 87%
CC(C)c1ncc(CN2CC=C(c3cccnc3)CC2)c(N)n1 [Example 15] | 131%
CC(C)c1ncc(CN2CCC(c3cccnc3)CC2)c(N)n1 [Example 16] | 78%
Nc1nc(C2CC2)ncc1CN1CC=C(c2ccccn2)CC1 [Example 17] | 72%
Nc1nc(C2CC2)ncc1CN1CC=C(c2cccnc2)CC1 [Example 18] | 58%

SMILES | Emax at 1 µM
Nc1nc(C2CC2)ncc1CN1CCC(c2ccccn2)CC1 [Example 19] | 64%
Nc1nc(C2CC2)ncc1CN1CCC(c2cccnc2)CC1 [Example 20] | 54%
Nc1nc(C2CCCC2)ncc1CN1CC=C(c2ccccn2)CC1 [Example 21] | 93%
Nc1nc(C2CCCC2)ncc1CN1CC=C(c2cccnc2)CC1 [Example 22] | 72%
Nc1nc(C2CCCC2)ncc1CN1CCC(c2ccccn2)CC1 [Example 23] | 105%
Nc1nc(C2CCCC2)ncc1CN1CCC(c2cccnc2)CC1 [Example 24] | 103%
CNc1nc(C)ncc1CN1CC=C(c2ccccn2)CC1 [Example 25] | 71%
CNc1nc(C)ncc1CN1CC=C(c2cccnc2)CC1 [Example 26] | 75%
CNc1nc(C)ncc1CN1CCC(c2ccccn2)CC1 [Example 27] | 66%
CNc1nc(C)ncc1CN1CCC(c2cccnc2)CC1 [Example 28] | 62%
Cc1ncc(CN2CC=C(c3ccccn3)CC2)cn1 [Example 29, 1′-[(2-Methylpyrimidin-5-yl)methyl]-1′,2′,3′,6′-tetrahydro-2,4′-bipyridine] | 107%
Cc1ncc(CN2CC=C(c3cccnc3)CC2)cn1 [Example 30] | 86%
Cc1ncc(CN2CCC(c3ccccn3)CC2)cn1 [Example 31] | 82%
Cc1ncc(CN2CCC(c3cccnc3)CC2)cn1 [Example 32] | 68%
Nc1ncc(CN2CC=C(c3ccccn3)CC2)cn1 [Example 34, 5-(3′,6′-Dihydro-2,4′-bipyridin-1′(2′H)-ylmethyl)pyrimidin-2-amine] | 93%
